Assay results reported in the supplement of paper PMC6045584.
± gives the standard deviation of the averaged measurements.

Compound: CCN(CC)CCNC(=O)c1c(C)[nH]c(/C=C2\C(=O)Nc3ccc(F)cc32)c1C [SUNITINIB]
Test: surviving fraction relative to DMSO-only wells; higher = less growth inhibition
Conditions: 50 nM; exposure time: 5 days
How it was run: (§1)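 Inhibitors were tested at 0.5, 1, 5, 10, 50, 100, 500 and 1000 nM, applied continuously for five days beginning 24 hours after log-phase tumour cells were seeded at 250–500 per well in 384-well plates. CellTiter-Glo luminescence served as the viability measure, expressed as surviving fraction against the median of DMSO-only wells. Each line, screened three times, was kept only with replicate Pearson r >0.7 and median Z' >0.3.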

Row | Test System | surviving fraction
1 | SUM149.B1*.S BREAST | 0.988 ± 0.02
2 | SUM159 BREAST | 0.914 ± 0.12
3 | SYO1 SYNOVIAL | 0.819 ± 0.013
4 | T47D BREAST | 1.11 ± 0.027
5 | U2OS BONE | 0.956 ± 0.026
6 | VCAP PROSTATE | 1.06 ± 0.077
7 | VP229 BREAST | 0.955 ± 0.12
8 | ZR751 BREAST | 1.31 ± 0.25

Same assay, conditions: 100 nM; exposure time: 5 days

Row | Test System | surviving fraction
9 | MDAMB468 BREAST | 1.04 ± 0.084
10 | MFM223 BREAST | 0.832 ± 0.058
11 | MG63 BONE | 0.854 ± 0.016
12 | NCIH441 LUNG | 0.977 ± 0.079
13 | NOS1 BONE | 0.391 ± 0.027
14 | NY BONE | 0.929 ± 0.019
15 | OS25HAL BONE | 0.925 ± 0.02
16 | OSHN BONE | 0.962 ± 0.017
17 | PCI30 HEADNECK | 1.45 ± 0.19
18 | RDES SOFT TISSUE | 1.08 ± 0.19
19 | S68 BREAST | 0.98 ± 0.13
20 | SAOS2 BONE | 0.863 ± 0.093
21 | SCC36 HEADNECK | 0.872 ± 0.074
22 | SCC90 HEADNECK | 1.25 ± 0.17
23 | SG27 HEADNECK | 1.25 ± 0.12
24 | SG28 HEADNECK | 0.725 ± 0.044

Row | Test System | surviving fraction
25 | SG31 HEADNECK | 0.962 ± 0.14
26 | SG32 HEADNECK | 0.609 ± 0.062
27 | SG43 HEADNECK | 1.02 ± 0.13
28 | SIHA CERVIX | 1.02 ± 0.086
29 | SKBR3 BREAST | 0.867 ± 0.084
30 | SNU475 LIVER | 0.8163 ± 0.0045
31 | SUM44 BREAST | 1.11 ± 0.023
32 | SUM149 BREAST | 0.756 ± 0.039
33 | SUM149.B1*.S BREAST | 0.873 ± 0.022
34 | SYO1 SYNOVIAL | 0.768 ± 0.036
35 | T47D BREAST | 1.13 ± 0.038
36 | U2OS BONE | 0.94 ± 0.038
37 | VCAP PROSTATE | 1.09 ± 0.099
38 | VP229 BREAST | 0.964 ± 0.038
39 | YAMATO SYNOVIAL | 0.583 ± 0.021

Same assay, conditions: 500 nM; exposure time: 5 days

Row | Test System | surviving fraction
40 | MDAMB453 BREAST | 0.986 ± 0.059
41 | MFM223 BREAST | 0.398 ± 0.013
42 | MG63 BONE | 0.721 ± 0.025
43 | MHM BONE | 0.881 ± 0.021
44 | NOS1 BONE | 0.167 ± 0.012
45 | NY BONE | 0.696 ± 0.023
46 | OS25HAL BONE | 0.767 ± 0.07
47 | OSHN BONE | 0.86 ± 0.019
48 | PCI30 HEADNECK | 1.2 ± 0.033
49 | RDES SOFT TISSUE | 1.17 ± 0.17
50 | S68 BREAST | 0.709 ± 0.065
51 | SAOS2 BONE | 0.301 ± 0.046
52 | SCC36 HEADNECK | 0.441 ± 0.047
53 | SCC47 HEADNECK | 0.726 ± 0.022
54 | SCC90 HEADNECK | 0.819 ± 0.06
55 | SG27 HEADNECK | 1.72 ± 0.17
56 | SG28 HEADNECK | 0.4727 ± 0.0046

Row | Test System | surviving fraction
57 | SG31 HEADNECK | 0.797 ± 0.13
58 | SG32 HEADNECK | 0.317 ± 0.048
59 | SG43 HEADNECK | 0.982 ± 0.09
60 | SIHA CERVIX | 0.725 ± 0.026
61 | SJSA1 BONE | 0.8283 ± 0.0078
62 | SKBR3 BREAST | 0.64 ± 0.064
63 | SNU475 LIVER | 0.752 ± 0.022
64 | SUM149 BREAST | 0.619 ± 0.017
65 | SUM149.B1*.S BREAST | 0.789 ± 0.02
66 | SUM159 BREAST | 0.839 ± 0.13
67 | SYO1 SYNOVIAL | 0.52 ± 0.014
68 | T47D BREAST | 1.13 ± 0.04
69 | U2OS BONE | 0.549 ± 0.014
70 | VCAP PROSTATE | 0.734 ± 0.034
71 | VP229 BREAST | 0.762 ± 0.064
72 | YAMATO SYNOVIAL | 0.588 ± 0.046
73 | ZR751 BREAST | 1.22 ± 0.16

Same assay, conditions: 1000 nM; exposure time: 5 days

Row | Test System | surviving fraction
74 | MDAMB453 BREAST | 0.724 ± 0.047
75 | MFM223 BREAST | 0.247 ± 0.015
76 | MG63 BONE | 0.637 ± 0.014
77 | MHM BONE | 0.774 ± 0.021
78 | NCIH441 LUNG | 0.764 ± 0.079
79 | NOS1 BONE | 0.113 ± 0.03
80 | NY BONE | 0.481 ± 0.036
81 | OS25HAL BONE | 0.431 ± 0.04
82 | OSHN BONE | 0.42 ± 0.026
83 | PCI30 HEADNECK | 1.03 ± 0.052
84 | RDES SOFT TISSUE | 0.567 ± 0.099
85 | S68 BREAST | 0.488 ± 0.1
86 | SAOS2 BONE | 0.154 ± 0.0052
87 | SCC36 HEADNECK | 0.222 ± 0.021
88 | SCC47 HEADNECK | 0.502 ± 0.041
89 | SCC90 HEADNECK | 0.522 ± 0.052
90 | SG27 HEADNECK | 0.81 ± 0.064
91 | SG28 HEADNECK | 0.124 ± 0.017

Row | Test System | surviving fraction
92 | SG31 HEADNECK | 0.343 ± 0.017
93 | SG32 HEADNECK | 0.0993 ± 0.011
94 | SG43 HEADNECK | 1.52 ± 0.029
95 | SIHA CERVIX | 0.418 ± 0.04
96 | SJSA1 BONE | 0.579 ± 0.011
97 | SKBR3 BREAST | 0.492 ± 0.014
98 | SNU475 LIVER | 0.193 ± 0.01
99 | SUM44 BREAST | 0.958 ± 0.013
100 | SUM149 BREAST | 0.176 ± 0.01
101 | SUM149.B1*.S BREAST | 0.27 ± 0.0057
102 | SUM159 BREAST | 0.548 ± 0.11
103 | SYO1 SYNOVIAL | 0.0887 ± 0.054
104 | T47D BREAST | 0.985 ± 0.077
105 | U2OS BONE | 0.262 ± 0.0072
106 | VCAP PROSTATE | 0.519 ± 0.06
107 | VP229 BREAST | 0.364 ± 0.051
108 | YAMATO SYNOVIAL | 0.0633 ± 0.0023

Compound: Cc1nc(Nc2n[nH]c3c2CN(C(=O)N[C@H](CN(C)C)c2ccccc2)C3(C)C)c2sccc2n1
Test: as above
Conditions: 0.5 nM; exposure time: 5 days
How it was run: as §1

Row | Test System | surviving fraction
109 | MDAMB453 BREAST | 1.14 ± 0.062
110 | MDAMB468 BREAST | 1.054 ± 0.0091
111 | MFM223 BREAST | 1.11 ± 0.074
112 | MG63 BONE | 0.921 ± 0.038
113 | MHM BONE | 0.953 ± 0.02
114 | NCIH441 LUNG | 0.955 ± 0.014
115 | NOS1 BONE | 0.922 ± 0.046
116 | NY BONE | 0.934 ± 0.041
117 | OS25HAL BONE | 0.983 ± 0.016
118 | OSHN BONE | 1.06 ± 0.037
119 | PCI30 HEADNECK | 0.882 ± 0.021
120 | RDES SOFT TISSUE | 0.764 ± 0.075
121 | S68 BREAST | 1.04 ± 0.21
122 | SAOS2 BONE | 0.797 ± 0.0017
123 | SCC36 HEADNECK | 0.862 ± 0.084
124 | SCC47 HEADNECK | 1.06 ± 0.018
125 | SCC90 HEADNECK | 0.981 ± 0.092
126 | SG27 HEADNECK | 0.936 ± 0.024
127 | SG28 HEADNECK | 0.97 ± 0.064
128 | SG31 HEADNECK | 0.947 ± 0.073
129 | SG32 HEADNECK | 1.04 ± 0.29
130 | SG43 HEADNECK | 1.23 ± 0.11
131 | SIHA CERVIX | 0.827 ± 0.039
132 | SJSA1 BONE | 0.972 ± 0.02
133 | SKBR3 BREAST | 0.895 ± 0.11
134 | SNU475 LIVER | 0.974 ± 0.027
135 | SUM44 BREAST | 1.08 ± 0.03
